# Source: patent US11299475B2, “Prostacyclin receptor agonist” (MEDSHINE DISCOVERY INC., priority 2018, dated 2022)
# Target: T1, PGI2 receptor (Homo sapiens, UniProt P43119)
# T1 construct: host or cells: thawed 'PGI2 cell' suspension
# Assay: PGI2 cAMP cell assay in vitro (HTRF cAMP)
# Format: cell-based
# Conditions: cells in vitro
# Description: PGI2 cAMP Cell Assay In Vitro:
# A series of cells were placed in a 37° C. water bath for rapid thawing, and the cell suspension was transferred to a 15 mL centrifuge tube containing 10 mL HBSS, and mixed uniformly. The cells were centrifuged at 1000 rpm for 5 minutes at room temperature. The supernatant was removed after centrifugation.
# The centrifuge tube was tapped gently to suspend the cells after centrifugation, then the cells were re-suspended with 10 mL HBSS (Hanks buffered saline solution) and mixed uniformly by pipetting up and down. The cells were counted by Vi-cell. The cells were centrifuged for the second time at 1000 rpm for 5 minutes. The cells were re-suspended by experimental buffer to reach a cell concentration of 1.5×10^5/mL.
# The samples were diluted with the Bravo automated liquid handling platform to make the initial concentration of the sample reach 2 mM and 5-fold serial dilution at 10 points. The control sample was diluted with Bravo to make the initial concentration of the sample reach 2 mM and 5-fold serial dilution at 10 points.
# 50 nL DMSO or sample to be tested was transferred to PE384-well OptiPlate by Echo. The cell suspension was transferred to the testing plate by electric pipette, 10 μL cells/well. The testing plate was centrifuged at 1000 rpm […]. The testing plate was incubated at room temperature for 60 minutes. Two kinds of test reagents were added to the testing plate, 5 µL/well. The testing plate was centrifuged at 1000 rpm for 1 minute. The experimental plate was sealed with Top Seal-A film and incubated at room temperature for 60 minutes. TopSeal-A was removed and the value was read on EnVision.
# T1 sequence (P43119 whole entry, species assumed): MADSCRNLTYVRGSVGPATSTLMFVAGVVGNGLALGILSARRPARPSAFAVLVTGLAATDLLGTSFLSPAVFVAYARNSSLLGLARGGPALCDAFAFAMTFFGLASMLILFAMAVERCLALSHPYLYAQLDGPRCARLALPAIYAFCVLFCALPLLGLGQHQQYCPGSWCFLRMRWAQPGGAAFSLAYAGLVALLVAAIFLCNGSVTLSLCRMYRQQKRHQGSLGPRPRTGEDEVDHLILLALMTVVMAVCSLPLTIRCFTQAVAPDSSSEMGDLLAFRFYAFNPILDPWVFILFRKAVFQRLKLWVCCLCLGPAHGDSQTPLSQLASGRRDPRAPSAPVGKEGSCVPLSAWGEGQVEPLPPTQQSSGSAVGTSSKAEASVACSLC
row,EC50 [nM],SMILES
1,20.1,O=C(O)COCC1(F)CCN(c2cncc(N(c3ccccc3)c3nccs3)n2)CC1 [Compound 46]
2,3.2,O=C(O)COCC1(F)CCN(c2cncc(N(c3ccc(F)cc3)c3ccccn3)n2)CC1 [Compound 40]
3,3.55,O=C(O)COCC1CCN(c2cncc(N(c3ccccc3)c3ccc(OC(F)(F)F)cc3)n2)CC1 [Compound 6]
4,3.74,COc1ccc(N(c2ccccc2)c2cncc(N3CCC(COCC(=O)O)CC3)n2)cc1 [Compound 5]
5,4.17,O=C(O)COCC1CCN(c2cncc(N(c3ccccc3)c3ccc(OC(F)F)cc3)n2)CC1 [Compound 13]
6,34.2,O=C(O)COCC1(F)CCN(c2cncc(N(c3ccccc3)C3CCCCC3)n2)CC1 [Compound 37]
7,1.98,O=C(O)COCC1(F)CCN(c2cncc(N(c3ccccc3)c3cc(Cl)ccn3)n2)CC1 [Compound 44]
8,2.99,O=C(O)COCC1CCN(c2cncc(N(c3ccccc3)c3ccccc3)n2)CC1 [Compound 4]
9,2.02,O=C(O)COCC1CCN(c2cncc(N(c3ccccc3)c3ccc(Cl)cc3)n2)CC1 [Compound 1]
10,3.73,O=C(O)COCC1(F)CCN(c2cncc(N(c3ccccc3)c3ccc(OC(F)(F)F)cc3)n2)CC1 [Compound 26]
11,2.17,O=C(O)COCC1(F)CCN(c2cncc(N(c3cccc(Cl)c3)c3ccccn3)n2)CC1 [Compound 28]
12,38,O=C(O)COCC1CCN(c2cncc(N(c3ccccc3)c3cccc(OC(F)(F)F)c3)n2)CC1 [Compound 8]
13,2.94,O=C(O)COCC1(F)CCN(c2cncc(N(c3ccc(Cl)cc3)c3ccccn3)n2)CC1 [Compound 41]
14,12.8,O=C(O)COCC1CCN(c2cncc(N(c3ccccc3)c3cccc(F)c3)n2)CC1 [Compound 9]
15,123,O=C(O)COCC1CCN(c2cncc(N(c3ccccc3)c3cc(F)cc(F)c3)n2)CC1 [Compound 11]
16,10.2,O=C(O)COCC1CCN(c2cncc(N(c3ccccc3)c3ccc(F)c(F)c3)n2)CC1 [Compound 10]
17,3.26,O=C(O)COCC1(F)CCN(c2cncc(N(c3ccccc3)c3ccccn3)n2)CC1 [Compound 30]
18,1.65,O=C(O)COCC1(F)CCN(c2cncc(N(c3ccccc3)c3ccc(OC(F)F)cc3)n2)CC1 [Compound 20]
19,322,COC(c1ccccc1)(c1ccccc1)c1cncc(N2CCC(F)(COCC(=O)O)CC2)n1 [Compound 51]
20,0.43,O=C(O)COCC1(F)CCN(c2cncc(N(c3ccccc3)c3ccc(F)cc3)n2)CC1 [Compound 35]
21,9.65,O=C(O)COCC1CCN(c2cncc(N(c3ccccc3)c3cccc(OC(F)F)c3)n2)CC1 [Compound 14]
22,1.61,O=C(O)COCC1(F)CCN(c2cncc(N(c3ccccc3)c3cccc(F)n3)n2)CC1 [Compound 31]
23,1.07,O=C(O)COCC1(F)CCN(c2cncc(N(c3ccccc3)c3ccc(Cl)cn3)n2)CC1 [Compound 43]
24,0.8,O=C(O)COCC1(F)CCN(c2cncc(N(c3ccccc3)c3ccc(Cl)cc3)n2)CC1 [Compound 25]
25,2990,O=C(O)COCC1CCN(c2nccc(N(c3ccccc3)c3ccc(Cl)cc3)n2)CC1 [Compound 2]
26,459,COc1ccc(N(c2ccc(Cl)cc2)c2cncc(N3CCC(F)(COCC(=O)O)CC3)n2)nc1 [Compound 38]

row,EC50 [nM],SMILES
1,118,CS(=O)(=O)NC(=O)COCC1(F)CCN(c2cncc(N(c3ccccc3)c3ccc(F)cn3)n2)CC1 [Compound 33]
2,6.11,CCOC(=O)COCC1(F)CCN(c2cncc(N(c3ccccc3)c3ccccc3)n2)CC1 [Compound 19]
3,1.55,Cc1ccc(N(c2ccccc2)c2cncc(N3CCC(F)(COCC(=O)O)CC3)n2)nc1 [Compound 45]
4,3,O=C(O)COCC1(F)CCN(c2cncc(N(c3ccccc3)c3cccc(OC(F)F)c3)n2)CC1 [Compound 21]
5,2.12,COc1cccc(N(c2ccccc2)c2cncc(N3CCC(COCC(=O)O)CC3)n2)c1 [Compound 7]
6,23.5,O=C(O)COCC1CCN(c2ccnc(N(c3ccccc3)c3ccccc3)n2)CC1 [Compound 16]
7,40.1,O=C(O)COCC1CC=C(c2cncc(N(c3ccccc3)c3ccc(Cl)cc3)n2)CC1 (stereo not shown) [Compound 47]
8,1.41,O=C(O)COCC1(F)CCN(c2cncc(N(c3ccccc3)c3ccc(F)cn3)n2)CC1 [Compound 32]
9,81,O=C(O)COCC1(F)CCN(c2cncc(C(O)(c3ccccc3)c3ccccc3)n2)CC1 [Compound 49]
10,1.1,COc1ccc(N(c2ccccc2)c2cncc(N3CCC(F)(COCC(=O)O)CC3)n2)cc1 [Compound 23]
11,1.9,COc1ccc(N(c2ccccc2)c2cncc(N3CCC(F)(COCC(=O)O)CC3)n2)nc1 [Compound 34]
12,18,O=C(O)COC[C@H]1CC[C@@H](c2cncc(N(c3ccccc3)c3ccccc3)n2)CC1 [Compound 48a]
13,4.19,COc1cccc(N(c2ccc(F)cn2)c2cncc(N3CCC(F)(COCC(=O)O)CC3)n2)c1 [Compound 29]
14,3.72,O=C(O)COC[C@H]1CC[C@H](c2cncc(N(c3ccccc3)c3ccccc3)n2)CC1 [Compound 48b]
15,2.09,O=C(O)COCC1CCN(c2cncc(N(c3ccccc3)c3ccc(F)cc3)n2)CC1 [Compound 3]
16,0.29,O=C(O)COCC1(F)CCN(c2cncc(N(c3ccccc3)c3ccccc3)n2)CC1 [Compound 17]
17,2.63,COc1ccc(N(c2ccccn2)c2cncc(N3CCC(F)(COCC(=O)O)CC3)n2)cc1 [Compound 42]
18,6.74,O=C(O)COCC1(F)CCN(c2cncc(N(c3cccc(F)c3)c3ccccn3)n2)CC1 [Compound 27]
19,5.36,O=C(O)COCC1(F)CCN(c2cncc(C(c3ccccc3)c3ccccc3)n2)CC1 [Compound 50]
20,> 2000,O=C(O)COCC1CCN(c2cccc(N(c3ccccc3)c3ccccc3)n2)CC1 [Compound 15]
21,0.22,O=C(O)COCC1(F)CCN(c2cncc(N(c3ccccc3)c3cccc(F)c3)n2)CC1 [Compound 22]
22,79.9,CS(=O)(=O)NC(=O)COCC1(F)CCN(c2cncc(N(c3ccccc3)c3ccccc3)n2)CC1 [Compound 18]
23,> 300,O=C(O)COCC1(F)CCN(c2cncc(N(c3ccc(Cl)cc3)c3ccc(F)cn3)n2)CC1 [Compound 39]
24,4.97,CS(=O)(=O)NC(=O)COCC1(F)CCN(c2cncc(N(c3ccccc3)c3ccc(F)cc3)n2)CC1 [Compound 36]
25,0.41,COc1cccc(N(c2ccccc2)c2cncc(N3CCC(F)(COCC(=O)O)CC3)n2)c1 [Compound 24]
26,4.84,O=C(O)COCC1CCN(c2cncc(N(c3ccccc3)c3cccc(Cl)c3)n2)CC1 [Compound 12]
